Experimental data taken from paper PMC6010545, “Identification of a Novel Polyamine Scaffold With Potent Efflux Pump Inhibition Activity Toward Multi-Drug Resistant Bacterial Pathogens” (Frontiers in Microbiology, 2018).
In brackets after ≈: the same amount, converted by molar mass. Several values for one entry are separate records, joined by “and”; a condition that tells them apart may be missing. Identical values can stand only once. Like-named read-outs stand apart in the source and are kept apart here. No end group written: not given here.

Legend:
[1] = tested on: tetracycline-resistant P. aeruginosa isolate 1419; test: Checkerboard potentiation assay with tetracycline; format: cell-based, Pseudomonas aeruginosa; settings: for TPI (inhibitory concentration of polyamine alone): 25 µg ml-1 highest tested
Procedure: (§1) Scaffold ranking library samples and individual polyamines were screened using checkerboard inhibitory assays to assess the potentiation of tetracycline and chloramphenicol. The test utilized a 96-well plate microtiter assay where the concentration of the scaffold or individual polyamine was decreased from 25 to 0.8 μg mL^-1 (average molarity of mixture samples 65 to 4 μM) along the rows, and the concentration of tetracycline or chloramphenicol was increased from 0.4 to 100 μM across the columns. […] However, with the known antibiotics, we report EC90 values in μM, which more accurately describes purified compounds. Plates were incubated statically at 37°C for 20 h, and the optical density (OD600) was determined using a Synergy 2 plate reader (BioTek). Potentiation modeling (detailed below) was performed to determine fold change in the 50 and 90% effective concentration of tetracycline or chloramphenicol.
(§2) Potentiation was quantified using a mathematical model developed by our group to assess the ability of library samples and individual compounds to effectively enhance the activity of tetracycline or chloramphenicol ([Hoel, 1987]). […] In this way, only libraries and compounds that potentiated tetracycline or chloramphenicol activity were pursued. The model is based on the following equation for modeling the percentage activity of a mixture of two agents with independent action ([Hoel, 1987]):
%Antibiotic & Comp(X1,X2)=%Antibiotic(X1)+%Comp(X2)−%Antibiotic(X1)⋅%Comp(X2)
Here, x1 and x2 are the concentrations of antibiotic (tetracycline or chloramphenicol) and library/compound (Comp) tested, respectively. This equation can be rearranged to model the effective percent activity (EC) of the antibiotic alone, after accounting for compound activity:
Eff%Antibiotic(X1)=%Antibiotic & Compound(X1,X2)−%Compound(X2)/1−%Compound(X2)
Thus, the model-adjusted checkerboards show the antibiotic activity post-potentiation, and from that one can determine the true change in Mic.

[2] = tested on: P. aeruginosa proficient (1419) and deficient (1418) strain; test: Aztreonam combination testing in efflux proficient and deficient strains; format: cell-based; settings: strain 1419 (efflux proficient); polyamine 12.5 μg mL^-1, ½ X MIC aztreonam
Procedure: FIGURE 6 Confirming efflux pump inhibition by polyamines using efflux deficient strains. (A) A P. aeruginosa proficient (1419) and deficient (1418) strain were subjected to combination testing of the polyamines at 12.5 μg mL^-1 and ½ X MIC of aztreonam. Fold potentiation was calculated by dividing the CFU mL^-1 for aztreonam only by the CFU mL^-1 of the combined treatment groups. (B) Lead polyamine 247 was assessed for its ability to potentiate the activity of chloramphenicol toward S. aureus strain United States 300 and its norA mutant. Shown is the potentiated chloramphenicol EC90 calculated as described in A. Error bars are shown ± SEM.

MTT cytotoxicity assay = format: cell-based; settings: human, 25 μg mL^-1, 48 h, read-out: percent recovery (cell viability)
Procedure: To assess toxicity of polyamine compounds we used HepG2 human liver carcinoma cells and Hek293T human embryonic kidney epithelial cells. The viability of cell lines was determined using a 3-(4,5-dimethylthiazol-2-yl)-2,5-diphenyltetrazolium bromide (MTT) molecular probe as previously described by our group ([Fleeman et al., 2015]). Briefly, 247, 266, 271 (Hek293T), or 250, 271, 314 (HepG2), alongside control efflux pump inhibitor PaβN, were diluted in 10% DMF from 25 μg mL^-1 to 3 μg mL^-1 using twofold dilutions, before being added to cells in DMEM with 10% FBS and 1% penicillin/streptomycin. Cells were then incubated for 48 h at 37°C with 5% CO2. Following this, viability was assessed by the addition of MTT and measuring the OD570 in a Biotek plate reader. Percent recovery was determined compared to no drug controls.

P. aeruginosa (1419) [3] = test: Checkerboard potentiation assay with chloramphenicol; format: cell-based; settings: increasing polyamine concentration
Procedure: as §1
as §2, with “The model is based on the following equation for modeling the percentage activity of a mixture of two agents with independent action ([Hoel, 1987]):” left out

A. baumannii 1643 = test: Minimum inhibitory concentrations of antibiotics, A. baumannii isolate; format: cell-based; settings: Acinetobacter baumannii; strain 1643; read-out: minimal inhibitory concentration
Procedure: (§3) The bacterial strains used in this study are multi-drug resistant clinical isolates that have previously been described (Supplementary Table S1; [Fleeman et al., 2015]). Organisms were grown in tryptic soy broth (TSB) for overnight cultures and cation adjusted Mueller Hinton broth (CA-MH II) was used for experimental procedures. All incubations were performed at 37°C. The minimum inhibitory concentrations (MICS) for all antibiotics tested against these organisms are shown in Supplementary Table S1.

P. aeruginosa = test: Minimum inhibitory concentrations of antibiotics, P. aeruginosa isolates; format: cell-based; settings: Pseudomonas aeruginosa, read-out: minimal inhibitory concentration
Procedure: as §3

P. aeruginosa (1419) [4] = test: Bactericidal assessment in combination with tetracycline; settings: Pseudomonas aeruginosa, read-out: percent recovery (bacterial viability)
Procedure: Lead agents were screened for bactericidal activity as described by us previously ([Van Horn et al., 2014]; [Fleeman et al., 2015]), with the following modifications. Varying concentrations of tetracycline (0, 12, 25, and 50 μM) were used in combination with the MPC (25 μM) of lead agents 247, 250, 266, 271, and 314 against P. aeruginosa. […] Biofilm experiments were performed similar to those described by us previously ([Fleeman et al., 2015]; [von Salm et al., 2016]), with the following modifications. Polyamine agents 247, 250, 266, 271, and 314 were added at MPC into biofilm containing wells alongside varying concentrations of tetracycline (0, 12, 25, and 50 μM). Cellular viability was determined by serial dilution after a 20-h incubation at 37°C. Values were converted to percent recovery using no treatment controls. All data was generated from three biological replicates and two technical replicates.

P. aeruginosa (1419) [5] = test: Bacterial membrane depolarization (DiSC3 dye); format: cell-based; settings: 25 μg mL^-1
Procedure: To determine the level of membrane depolarization by polyamine compounds a 3,3′-dipropylthiadicarbocyanine Iodide (DiSC3) fluorescence dye was used. Exponentially growing cultures were prepared as described above, before being harvested by centrifugation. Cells were next washed in buffer a [5 mM Hepes (pH 7.2), 5 mM glucose] and resuspended to an OD600 of 0.2 in the same buffer containing 100 mM KCL and 2 μM DiSC3. Samples were allowed to equilibrate for 15 min at room temperature to ensure uptake and quenching of the dye in bacterial membranes. Cells were aliquoted into 96-well plates and polyamines were added alongside the known efflux inhibitor PAβN (all at 25 μg mL^-1). Nisin (25 μg mL^-1) was used as a positive control to display depolarization effects. A Biotek plate reader was used to monitor fluorescence of wells, with a 622 nm excitation and 670 nm emission. For graphical representation, the maximum relative fluorescence at 2 min was used for comparison of lead agents to controls.

[6] = 25 µg ml-1 TPI, EC50 tetracycline no TPI / with TPI
[7] = 25 µg ml-1 TPI, EC90 tetracycline no TPI / with TPI
[8] = EC50 tetracycline without EPI / with EPI
[9] = EC90 tetracycline without EPI / with EPI
[10] = Pseudomonas aeruginosa, 20 h, inhibitor alone, 25 μg mL^-1 highest concentration tested, * = EC50, read-out: EPI* (inhibitory concentration of efflux pump inhibitor alone)
[11] = HepG2 human liver carcinoma cells

| Molecule | FP* (fold potentiation of tetracycline EC50) [1, 6] [fold] | FP# (fold potentiation of tetracycline EC90) [1, 7] [fold] | FP* (fold potentiation of tetracycline EC50) [1, 8] | FP# (fold potentiation of tetracycline EC90) [1, 9] [fold] | EC50 [1, 10] [µg/mL] | TPI (inhibitory concentration of polyamine alone) [1] [µg/mL] | recovery at 48 h, 25 μg mL^-1 (MTT cytotoxicity assay; [11]) [%] | further results |
| --- | --- | --- | --- | --- | --- | --- | --- | --- |
| NCC[C@@H](CN)NC[C@H](Cc1ccccc1)NCCc1ccccc1 [compound 250] | 7 | 7.8 | 7.0 fold | 7.8 | > 25 | > 25 | 80 | potentiation of aztreonam [2]: best potentiators of aztreonam |
| CNCCCC[C@H](CN)NC[C@H](Cc1ccccc1)NCCc1ccccc1 [compound 266] | 6.8 | 5.8 | 6.8 fold | 5.8 | > 25 | > 25 |  | potentiation of chloramphenicol EC90 (P. aeruginosa (1419) [3]): highest potentiation values; recovery at 48 h, 25 μg mL^-1 (MTT cytotoxicity assay; Hek293T human embryonic kidney epithelial cells, vs solvent only controls): 72% |
| NCCC[C@@H](CN[C@H](CN)Cc1ccccc1)NCCc1ccccc1 [compound 314] | 5 | 7.5 | 5 fold and 5.0 fold | 7.5 | > 25 | > 25 | 77 |  |
| C[C@H]1COc2c(N3CCN(C)CC3)c(F)cc3c(=O)c(C(=O)O)cn1c23 [levofloxacin] |  |  |  |  |  |  |  | MIC (A. baumannii 1643): 100 µM (≈ 36.1 µg/mL) |
| CN(C)[C@@H]1C(O)=C(C(N)=O)C(=O)[C@@]2(O)C(O)=C3C(=O)c4c(O)cccc4[C@@](C)(O)[C@H]3C[C@@H]12 [tetracycline] |  |  |  |  |  |  |  | EC50 ([1]; Pseudomonas aeruginosa, no polyamine, average across replicates, read-out: tetracycline alone EC50): 47.8 µM; EC90 ([1]; Pseudomonas aeruginosa, no library or polyamine, average across replicates, read-out: tetracycline alone EC90): 82.5 µM; MIC (P. aeruginosa; strain 1418): 200 µM (≈ 88.9 µg/mL); MIC (P. aeruginosa; strain 1419): 100 µM (≈ 44.4 µg/mL); viability at 12 µM (P. aeruginosa (1419) [4]): 53%; viability at 25 µM (P. aeruginosa (1419) [4]): 35%; viability at 50 µM (P. aeruginosa (1419) [4]): 1% |
| nisin (ITSISLCTPGCKTGALMGCNMKTATCHCSIHVSK; cysteine pairing not given here; also: lantibiotic nisin-A; UniProt P13068 24-57, looked up) [positive control for membrane depolarization] |  |  |  |  |  |  |  | membrane depolarization (DiSC3 fluorescence change) (P. aeruginosa (1419) [5]): strong increase in fluorescence |
